From paper PMC9081329, “Pharmacokinetics, Mass Balance, Excretion, and Tissue Distribution of Plasmalogen Precursor PPI-1011” (Frontiers in Cell and Developmental Biology, 2022)

Assay: Single dose tissue distribution study (QWBA, LSC of blood and plasma)
Type: in vivo, Sprague-Dawley rats
Experimental: Six male rats were administered a single oral dose of [^14C]PPI-1011 at 100 mg/kg (200 μCi/kg) and one rat was sacrificed at each of the following time points after the administration of the dose: 8, 12, 18, 24, 48, or 168 h. Terminal blood was collected by cardiac puncture directly into tubes with K2EDTA, an aliquot was stored at 4°C until LSC was performed for radioactivity, while the remaining blood was processed to plasma and stored at −20°C until LSC. Following blood collection, the carcasses were frozen in a cold bath with hexanes and dry ice for at least 8 min and then dried and stored at −70°C for at least 5 h. The carcasses were transferred to a −20°C freezer for at least 12 h before embedding.
QWBA was used to determine radioactivity concentrations in the caecum (contents and mucosa), large intestine (contents and mucosa), small intestine (contents and mucosa), stomach (contents and mucosa), brain, choroid plexus, spinal cord, bone, skin, adrenal gland, pineal body, pituitary gland, thyroid gland, liver, kidney (cortex, medulla and whole kidney), urinary bladder (contents and wall), brown fat, white fat, eye (lens, uveal tract and whole eye), epididymis, prostate gland, testis, ovary, uterus, lung, exorbital lachrymal gland, Harderian gland, pancreas, salivary gland, skeletal muscle, myocardium, cardiac blood, bone marrow, lymph node, spleen, and thymus. As well, LSC was used to determine the total radioactivity in the whole blood and plasma.
The whole-body cryosectioning technique described by ([Ullberg, 1977]) was the basis for embedding and cryosectioning the rats assigned to this study. Each frozen carcass was shaved, and then the limbs and tail were removed prior to embedding. Chilled (4°C) 3% CMC (low viscosity) was utilized to provide a firm support of reinforced ice around each rat and for a secure attachment to the microtome stage. Upon thorough freezing of the embedding medium surrounding each rat, the frozen CMC block was removed from the freezing bath and four 3/8 inch holes were drilled into the block. One cryosection quality control standard (CQCS) was prepared with a known amount of radioactivity and at least 1 ml aliquots were added to each of the four drilled holes. CQCS data were utilized to evaluate the overall performance of the QWBA assay.
Each frozen rat was sagittally trimmed (50–100 μm) at −20°C until exposure of a few target tissues employing a Leica Cryomacrocut heavy-duty microtome (Leica Microsystems Inc.,). Disposable stainless steel Feather type H45L knives (Feather Safety Razor Co., Ltd.) were utilized for trimming and sectioning each frozen rat. Several thinner sections (50 μm) were discarded prior to obtaining multiple 50 μm sections at various cryosectioning levels for QWBA analysis. Upon the collection of at least 60 target tissues in multiple cryosectioning levels, the cryosections were kept in the Cryomacrocut cryochamber for a minimum of 18 h for dehydration depending upon the number of cryosections within the cryochamber. After dehydration was complete, the cryosections were transferred to ambient temperature for processing. Mounted whole-body cryosections and a set of 15 standards were sandwiched between a standard phosphor screen and an exposure cassette. All cryosections were exposed to the phosphor screen for 4-days in a cabinet protected with lead prior to scanning using a Typhoon PhosphorImager (Cytiva). MCID™ Analysis software (InterFocus Ltd.) was utilized to generate a calibration curve of the STD nominal concentrations (nCi/g) versus PhosphorImager response (counts/μm^2 minus background) by weighted (1/x) linear regression analysis ([Potchoiba et al., 1995]; [Potchoiba et al., 1998]). The linear regression curve was then utilized to determine the concentration (nCi/g) of total radioactivity in whole-body tissues and blood. Radioactivity concentrations were expressed as μg Eq/g based on the specific activity of the compound in the final dose formulations. […]

[1] = 48 h post single oral 100 mg/kg
[2] = 168 h post single oral 100 mg/kg

Which results are given for `CC/C=C\C/C=C\C/C=C\C/C=C\C/C=C\C/C=C\CCC(=O)O[C@H](CO[14CH2]CCCCCCCCCCCCCCC)COC(=O)CCCCC1CCSS1` (stereo partly shown) [[^14C]PPI-1011]?
Radioactivity concentration, Small Intestines [1]: 43.3 μg equivalents/g; Radioactivity concentration, Spinal Cord [1]: 2.56 μg equivalents/g; Radioactivity concentration, Spleen [1]: 33.1 μg equivalents/g; Radioactivity concentration, Stomach [1]: 8.01 μg equivalents/g; Radioactivity concentration, Testis [1]: 4.02 μg equivalents/g; Radioactivity concentration, Thalamus [1]: 1.91 μg equivalents/g; Radioactivity concentration, Thymus [1]: 9.58 μg equivalents/g; Radioactivity concentration, Thyroid [1]: 27.2 μg equivalents/g; Radioactivity concentration, Whole Brain [1]: 2.45 μg equivalents/g; Radioactivity concentration, Adipose - Brown [2]: 89.0 μg equivalents/g; Radioactivity concentration, Adipose - Brown (Vessel Wall) [2]: 76.7 μg equivalents/g; Radioactivity concentration, Adipose - Subcutaneous [2]: 89.3 μg equivalents/g; Radioactivity concentration, Adipose - Visceral [2]: 90.7 μg equivalents/g; Radioactivity concentration, Adrenal Gland [2]: 142 μg equivalents/g; Radioactivity concentration, Bladder Wall [2]: < 0.485 μg equivalents/g; Radioactivity concentration, Blood - QWBA [2]: 2.56 μg equivalents/g; Radioactivity concentration, Bone Marrow [2]: 4.69 μg equivalents/g; Radioactivity concentration, Cerebellum [2]: 3.59 μg equivalents/g; Radioactivity concentration, Cerebrum [2]: 2.94 μg equivalents/g; Radioactivity concentration, Choroid Plexus [2]: 10.4 μg equivalents/g; Radioactivity concentration, Colliculus [2]: 3.97 μg equivalents/g; Radioactivity concentration, Diaphragm [2]: 11.7 μg equivalents/g; Radioactivity concentration, Epididymis [2]: 7.75 μg equivalents/g; Radioactivity concentration, Esophagus [2]: 5.34 μg equivalents/g; Radioactivity concentration, Exorbital Lacrimal Gland [2]: 7.36 μg equivalents/g; Radioactivity concentration, Gastric Mucosa [2]: 14.5 μg equivalents/g; Radioactivity concentration, Harderian Gland [2]: 3.67 μg equivalents/g; Radioactivity concentration, Intra-Orbital Lacrimal Gland [2]: 5.01 μg equivalents/g; Radioactivity concentration, Kidney [2]: 14.5 μg equivalents/g; Radioactivity concentration, Large Intestines [2]: 14.0 μg equivalents/g; Radioactivity concentration, Liver [2]: 7.50 μg equivalents/g; Radioactivity concentration, Lung [2]: 11.2 μg equivalents/g; Radioactivity concentration, Lymph Node [2]: 12.3 μg equivalents/g; Radioactivity concentration, Medulla Oblongata [2]: 3.13 μg equivalents/g; Radioactivity concentration, Muscle [2]: 7.01 μg equivalents/g; Radioactivity concentration, Myocardium [2]: 13.4 μg equivalents/g; Radioactivity concentration, Nasal Turbinates [2]: 4.29 μg equivalents/g; Radioactivity concentration, Ocular - Uveal Tract [2]: 6.48 μg equivalents/g; Radioactivity concentration, Ocular - Whole Eye [2]: 1.55 μg equivalents/g; Radioactivity concentration, Olfactory Bulb [2]: 2.25 μg equivalents/g; Radioactivity concentration, Pancreas [2]: 18.2 μg equivalents/g; Radioactivity concentration, Parotid Gland [2]: 12.3 μg equivalents/g; Radioactivity concentration, Pineal Gland [2]: 12.0 μg equivalents/g; Radioactivity concentration, Pituitary Gland [2]: 12.9 μg equivalents/g; Radioactivity concentration, Preputial Gland [2]: 69.0 μg equivalents/g; Radioactivity concentration, Prostate [2]: 4.44 μg equivalents/g; Radioactivity concentration, Renal Cortex [2]: 15.3 μg equivalents/g; Radioactivity concentration, Renal Medulla [2]: 11.8 μg equivalents/g; Radioactivity concentration, Salivary Gland [2]: 15.4 μg equivalents/g; Radioactivity concentration, Seminal Vesicles [2]: < 0.485 μg equivalents/g; Radioactivity concentration, Skin - Non-Pigmented [2]: 10.2 μg equivalents/g; Radioactivity concentration, Small Intestines [2]: 139 μg equivalents/g; Radioactivity concentration, Spinal Cord [2]: 3.33 μg equivalents/g; Radioactivity concentration, Spleen [2]: 9.36 μg equivalents/g; Radioactivity concentration, Stomach [2]: 4.97 μg equivalents/g; Radioactivity concentration, Testis [2]: 3.08 μg equivalents/g; Radioactivity concentration, Thalamus [2]: 2.78 μg equivalents/g; Radioactivity concentration, Thymus [2]: 7.84 μg equivalents/g; Radioactivity concentration, Thyroid [2]: 18.9 μg equivalents/g; Radioactivity concentration, Whole Brain [2]: 3.08 μg equivalents/g; Decline of radioactivity from peak concentration, brown adipose (by 168 HPD, single dose): approximately 5 fold; Decline of radioactivity from peak concentration, subcutaneous adipose (by 168 HPD, single dose): ~2 fold; Decline of radioactivity from peak concentration, visceral adipose (by 168 HPD, single dose): ~3 fold; Average concentration in choroid plexus, pineal gland, pituitary gland versus non-circumventricular CNS tissues (seven days after single dose): approximately 4 fold; Radioactivity in urine within the urinary bladder (single dose): no detection of radioactivity; Time of highest blood concentration (single dose): 8 HPD; Time of highest peak concentration, bladder wall (single dose): 8 HPD; Time of highest peak concentration, brown adipose (single dose): 12 HPD; Time of highest peak concentration, cecum (single dose): 12 HPD; Time of highest peak concentration, choroid plexus (single dose): 12 HPD; Time of highest peak concentration, epididymis (single dose): 12 HPD; Time of highest peak concentration, esophagus (single dose): 8 HPD; Time of highest peak concentration, gastric mucosa (single dose): 8 HPD; Time of highest peak concentration, large intestines (single dose): 12 HPD; Time of highest peak concentration, pineal gland (single dose): 48 HPD; Time of highest peak concentration, pituitary gland (single dose): 18 HPD; Time of highest peak concentration, preputial gland (single dose): 12 HPD; Time of highest peak concentration, prostate (single dose): 24 HPD; Time of highest peak concentration, small intestines (single dose): 8 HPD; Time of highest peak concentration, stomach (single dose): 12 HPD; Time of highest peak concentration, subcutaneous adipose (single dose): 12 HPD; Time of highest peak concentration, testis (single dose): 18 HPD; Time of highest peak concentration, visceral adipose (single dose): 12 HPD; Time of peak levels, non-circumventricular CNS tissue (single dose): 168 HPD; Concentration in choroid plexus, pineal gland, pituitary gland versus non-circumventricular CNS tissues (throughout the time course, single dose): approximately 4 fold
